According to publication PMC12030650, “Synthesis, Antitumor Activities, and Apoptosis-Inducing Activities of Schiff’s Bases Incorporating Imidazolidine-2,4-dione Scaffold: Molecular Docking Studies and Enzymatic Inhibition Activities” (Pharmaceuticals, 2025):
“And” between values parts separate entries of the source, which are not always exact repeats. Equal entries are not always repeated. Where two headings read alike, the source gives them in different places.

Legend:
[1] = test system: breast cancer cell line MCF-7; design: method as in doi:10.1016/j.rechem.2023.101118; conditions: cited from earlier work
[2] = target: T1, EGFR (Homo sapiens, UniProt P00533); design: method as in PMID 31297023; conditions: read-out: kinase inhibition of EGFR IC50; cited from earlier work
T1 construct: purchased BPS Bioscience 40321
T1 sequence (P00533 25-1210): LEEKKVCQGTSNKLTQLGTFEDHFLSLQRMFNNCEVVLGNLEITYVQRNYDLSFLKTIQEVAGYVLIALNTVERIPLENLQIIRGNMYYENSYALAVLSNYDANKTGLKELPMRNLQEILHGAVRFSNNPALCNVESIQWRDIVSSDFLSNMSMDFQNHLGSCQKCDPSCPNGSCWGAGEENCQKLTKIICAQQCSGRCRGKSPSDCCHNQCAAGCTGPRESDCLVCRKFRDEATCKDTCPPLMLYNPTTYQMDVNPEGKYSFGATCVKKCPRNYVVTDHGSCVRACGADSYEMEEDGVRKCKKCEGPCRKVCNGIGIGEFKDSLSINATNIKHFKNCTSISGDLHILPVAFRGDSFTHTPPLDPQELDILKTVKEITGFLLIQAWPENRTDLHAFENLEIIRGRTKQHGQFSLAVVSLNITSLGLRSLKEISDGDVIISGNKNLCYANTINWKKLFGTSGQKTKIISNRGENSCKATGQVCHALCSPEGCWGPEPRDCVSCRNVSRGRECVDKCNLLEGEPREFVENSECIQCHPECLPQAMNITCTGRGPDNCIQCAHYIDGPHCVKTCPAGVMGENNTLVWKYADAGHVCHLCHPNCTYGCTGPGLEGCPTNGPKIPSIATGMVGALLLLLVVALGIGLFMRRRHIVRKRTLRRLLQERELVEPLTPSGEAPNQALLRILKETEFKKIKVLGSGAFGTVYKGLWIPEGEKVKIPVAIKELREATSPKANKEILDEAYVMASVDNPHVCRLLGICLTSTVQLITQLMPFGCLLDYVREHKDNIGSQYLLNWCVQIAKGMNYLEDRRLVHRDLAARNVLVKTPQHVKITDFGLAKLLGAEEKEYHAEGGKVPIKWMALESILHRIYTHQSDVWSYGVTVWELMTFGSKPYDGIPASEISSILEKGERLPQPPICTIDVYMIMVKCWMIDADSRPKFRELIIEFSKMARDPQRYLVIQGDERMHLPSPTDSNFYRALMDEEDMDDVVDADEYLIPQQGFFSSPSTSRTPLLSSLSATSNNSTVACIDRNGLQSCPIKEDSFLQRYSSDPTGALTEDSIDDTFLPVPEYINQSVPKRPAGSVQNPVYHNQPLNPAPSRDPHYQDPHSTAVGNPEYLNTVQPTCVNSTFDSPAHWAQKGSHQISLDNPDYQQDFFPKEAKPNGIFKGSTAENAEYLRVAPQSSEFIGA

[3] = test system: various cell lines; design: method as in doi:10.1007/s00044-013-0597-1; conditions: read-out: cytotoxic effect on various cell lines IC50; cited from earlier work
[4] = test system: HCT-116, HePG-2, and MCF-7; assay: MTT cytotoxicity, summary over the examined cancer cell lines; conditions: Homo sapiens
[5] = target: T1, EGFR; assay: In vitro luminescent EGFR tyrosine kinase assay (Kinase-Glo Max); assay type: biochemical; conditions: read-out: Kinase Inhibition IC50 EGFR
[6] = test system: human colorectal carcinoma (HCT-116); assay: MTT cytotoxicity assay, HCT-116; conditions: for IC50: Homo sapiens, HCT-116, read-out: IC50 HCT-116; for SI (selectivity index) HCT-116: WI-38 vs HCT-116
[7] = target: T2, HER2 (Homo sapiens, UniProt P04626); assay: In vitro luminescent HER2 tyrosine kinase assay (Kinase-Glo Max); assay type: biochemical; conditions: read-out: Kinase Inhibition IC50 HER2
T2 construct: purchased BPS Bioscience 40721
T2 sequence (P04626 23-1255): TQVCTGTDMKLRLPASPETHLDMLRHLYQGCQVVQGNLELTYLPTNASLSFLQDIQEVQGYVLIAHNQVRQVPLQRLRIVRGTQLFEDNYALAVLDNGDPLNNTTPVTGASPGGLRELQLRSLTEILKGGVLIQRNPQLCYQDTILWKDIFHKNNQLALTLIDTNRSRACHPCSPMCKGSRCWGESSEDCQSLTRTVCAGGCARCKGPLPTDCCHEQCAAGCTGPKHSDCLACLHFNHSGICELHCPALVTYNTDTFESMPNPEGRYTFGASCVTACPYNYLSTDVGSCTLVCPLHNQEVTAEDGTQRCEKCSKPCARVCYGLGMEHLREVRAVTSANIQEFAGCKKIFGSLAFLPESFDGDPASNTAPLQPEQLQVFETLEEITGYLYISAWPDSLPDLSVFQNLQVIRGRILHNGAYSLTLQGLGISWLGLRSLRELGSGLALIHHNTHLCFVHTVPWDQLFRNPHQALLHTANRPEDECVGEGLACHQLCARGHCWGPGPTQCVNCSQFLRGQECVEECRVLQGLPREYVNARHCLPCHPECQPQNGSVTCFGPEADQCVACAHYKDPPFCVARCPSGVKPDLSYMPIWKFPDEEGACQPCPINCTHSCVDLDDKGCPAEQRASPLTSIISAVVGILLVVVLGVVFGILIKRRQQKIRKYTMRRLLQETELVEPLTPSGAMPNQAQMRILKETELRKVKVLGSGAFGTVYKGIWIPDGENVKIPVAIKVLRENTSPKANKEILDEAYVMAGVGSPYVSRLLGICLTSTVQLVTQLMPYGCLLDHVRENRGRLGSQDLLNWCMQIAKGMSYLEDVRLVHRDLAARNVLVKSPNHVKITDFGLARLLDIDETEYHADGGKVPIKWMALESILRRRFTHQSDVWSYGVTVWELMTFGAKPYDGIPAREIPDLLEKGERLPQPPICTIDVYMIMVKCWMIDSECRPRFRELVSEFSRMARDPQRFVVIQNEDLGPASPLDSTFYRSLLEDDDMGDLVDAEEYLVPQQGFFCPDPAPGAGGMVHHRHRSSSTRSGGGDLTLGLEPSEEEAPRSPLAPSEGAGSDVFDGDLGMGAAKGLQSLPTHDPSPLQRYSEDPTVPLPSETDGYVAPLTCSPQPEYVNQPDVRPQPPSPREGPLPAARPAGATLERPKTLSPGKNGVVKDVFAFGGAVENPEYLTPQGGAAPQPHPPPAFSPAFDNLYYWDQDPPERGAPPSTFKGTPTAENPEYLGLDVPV
Protocol: […]. Erlotinib was probed as the standard drug in the EGFR inhibition assay, while lapatinib was tested as the […]. […].
EGFR and HER2 kinase inhibitory activities were determined based on the manufacturer’s guidelines (EGFR Kinase Assay Kit Catalog no. 40321 and HER2 Kinase Assay Kit Catalog no. 40721, BPS Bioscience, San Diego, CA).

[8] = test system: breast adenocarcinoma (MCF-7); assay: MTT cytotoxicity assay, MCF-7; conditions: for IC50: Homo sapiens, MCF7, read-out: IC50 MCF-7; for SI (selectivity index) MCF-7: WI-38 vs MCF-7
[9] = test system: WI-38 normal fibroblast cell line; assay: MTT cytotoxicity against normal human cells; assay type: cell-based; conditions: normal fibroblast WI-38; for IC50: Homo sapiens, read-out: IC50 WI-38
Protocol: The evaluation was conducted using a 3-(4,5-dimethylthiazol-2-yl)-2,5-diphenyltetrazolium bromide (MTT) assay, as described by the authors of [50, 51]. The cell lines were obtained from ATCC. For comparative purposes, standard drugs, such as doxorubicin and erlotinib, were employed.

[10] = test system: hepatoblastoma (HePG-2); assay: MTT cytotoxicity assay, HePG-2; conditions: for IC50: Homo sapiens, HepG2, read-out: IC50 HePG-2; for SI (selectivity index) HePG-2: WI-38 vs HePG-2
[11] = test system: MCF-7 cell line; assay: Cell cycle analysis (propidium iodide, flow cytometry); assay type: cell-based, human
Text: Cell cycle analysis is used to quantify DNA content distribution via flow cytometry at various cell cycle stages (pre-G1, G1, S, and G2/M). Compound 24 was selected to analyze its effect on cell cycle progression in the MCF-7 cell line at different concentrations.
Cancer cell line MCF-7 was stained with ab139418_Propidium Iodide (DNA stain) and analyzed using a FACSCalibur flow cytometer.

[12] = test system: anti-apoptotic protein MCL-1 in MCF-7; assay: MCL-1 expression in MCF-7 cells (ELISA); assay type: cell-based, human
Protocol: (§1) Apoptosis is regulated by intrinsic pathways such as the B-cell lymphoma-2 (BCL-2) family. […] MCL-1, one of the BCL-2 family members, is likely to have a significant role in cell death. The expression of MCL-1 and BCL-2 in MCF-7 cells treated with different concentrations was studied.
(§2) Apoptosis of the MCF-7 cancer cell line was measured using the Human MCL1eia kit (ELISA Kit) for the MCL-1 enzyme assay and the Invitrogen Zymed® Bcl-2 ELISA Kit for the BCL-2 enzyme assay. The ROBONIK P2000 ELISA READER was used for analysis.

[13] = test system: anti-apoptotic protein BCL-2 in MCF-7; assay: BCL-2 expression in MCF-7 cells (ELISA); assay type: cell-based, human
Protocol: as §1, §2

[14] = read-out: average IC50 versus the examined cell lines

Row | Compound | IC50 [5] [µM] | IC50 [7] [µM] | IC50 [4, 14] [µM] | IC50 [6] [µM] | SI (selectivity index) HCT-116 [6] | IC50 [8] [µM] | SI (selectivity index) MCF-7 [8] | IC50 [9] [µM] | IC50 WI-38 [9] | IC50 [10] [µM] | SI (selectivity index) HePG-2 [10] | also measured
1 | O=C(CN1C(=O)NC(c2ccccc2)(c2ccccc2)C1=O)Nc1ccc(S(=O)(=O)Nc2ccccn2)cc1 [Compound 3] | – | – | – | – | – | – | – | – | – | – | – | inhibition of the breast cancer cell line MCF-7 [1]: around 74%
2 | O=C(CN1C(=O)NC(c2ccccc2)(c2ccccc2)C1=O)N/N=C/c1c[nH]c2ccccc12 [Compound 1] | – | – | – | – | – | – | – | – | – | – | – | IC50 [2]: 0.1 µM
3 | O=C(CN1C(=O)NC(c2ccccc2)(c2ccccc2)C1=O)c1ccc(N2CCCCC2)cc1 [Compound 2] | – | – | – | – | – | – | – | – | – | – | – | IC50 [3]: 10 µM
4 | CC(=NNC(=O)CN1C(=O)NC(c2ccccc2)(c2ccccc2)C1=O)c1ccc(Cl)cc1 [Compound 10, N′-(1-(4-Chlorophenyl)ethylidene)-2-(2,5-dioxo-4,4-diphenylimidazolidin-1-yl)acetohydrazide] | 0.67 ± 0.03 | 0.71 ± 0.02 | 13.2 | 17.9 ± 1.4 | 3.0 and 3.02 | 11.2 ± 0.9 | 4.8 and 4.84 | 54.2 | low cytotoxicity | 10.7 ± 0.9 | 5.0 and 5.07 | –

Second part, led by results:

Row | IC50 [5] [µM] | IC50 [7] [µM] | Compound | IC50 [4, 14] [µM] | IC50 [6] [µM] | SI (selectivity index) HCT-116 [6] | IC50 [8] [µM] | SI (selectivity index) MCF-7 [8] | IC50 [9] [µM] | IC50 WI-38 [9] | IC50 [10] [µM] | SI (selectivity index) HePG-2 [10] | also measured
5 | 0.61 ± 0.02 | 0.28 ± 0.01 | CC(=NNC(=O)CN1C(=O)NC(c2ccccc2)(c2ccccc2)C1=O)c1ccc(OC(F)(F)F)cc1 [Compound 13, 2-(2,5-Dioxo-4,4-diphenylimidazolidin-1-yl)-N′-(1-(4-(trifluoromethoxy)phenyl)ethylidene)acetohydrazide] | 14.5 | 20.1 ± 1.7 | 2.2 and 2.25 | 9.58 ± 0.8 | 4.7 and 4.73 | 45.4 | low cytotoxicity | 13.9 ± 1.2 | 3.2 and 3.25 | –
6 | 0.07 ± 0.004 | 0.04 ± 0.001 | CC(=NNC(=O)CN1C(=O)NC(c2ccccc2)(c2ccccc2)C1=O)c1ccc2ccccc2c1 [Compound 24, 2-(2,5-Dioxo-4,4-diphenylimidazolidin-1-yl)-N′-(1-(naphthalen-2-yl)ethylidene)acetohydrazide] | – | 12.8 ± 0.9 | 3.0 and 3.08 | 4.92 ± 0.3 | 8.0 and 8.03 | 39.5 | low cytotoxicity | 9.07 ± 0.8 | 4.3 and 4.35 | IC50 ([4]; read-out: IC50 range against the selected cell lines): 4.92 to 20.1 µM; Comment (cell cycle arrest) [11]: cell cycle arrest appeared at the G2/M phase; %G0–G1 ([11]; 2 µM): 52.12%; %G2/M ([11]; 2 µM): 25.43%; %S ([11]; 2 µM): 22.45%; %G0–G1 ([11]; 10 μM): 50.61%; %G2/M ([11]; 10 μM): 33.46%; %S ([11]; 10 μM): 15.93%; MCL-1 expression level ([12]; 2 µM): 715.62 pg/mL; MCL-1 expression level ([12]; 10 μM): 261.20 pg/mL and 261.20 ± 8.97 pg/mL; BCL-2 expression level ([13]; 2 µM): 15.55 ng/mL; BCL-2 expression level ([13]; 10 μM): 8.60 ng/mL and 8.598 ± 0.29 ng/mL
7 | 1.61 ± 0.07 | 1.17 ± 0.04 | CC(=NNC(=O)CN1C(=O)NC(c2ccccc2)(c2ccccc2)C1=O)c1cccnc1 [Compound 21, 2-(2,5-Dioxo-4,4-diphenylimidazolidin-1-yl)-N′-(1-(pyridin-3-yl)ethylidene)acetohydrazide] | 13.1 | 19.2 ± 1.5 | 3.1 and 3.15 | 8.61 ± 0.6 | 7.06 | 60.8 | low cytotoxicity | 11.5 ± 1 | 5.2 and 5.28 | –
